Source: ChEMBL document CHEMBL1201862, “PubChem BioAssay data set” (2004)
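Step 1: Grow cells in 96-well plates. Step 2: Expose to compound for 48 hours at 5 concentrations. Step 3: Interpolate endpoints linearly; if unreached, use highest concentration. The concentration for 50% growth inhibition is given as GI50.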 Activity calls are given as the source filed them. Cut-off read from the data, not from the text of the source: active = GI50 up to about 1.1 µM and inactive = higher.

Columns and labels:
Assay in all cases: inhibition of tumour cell growth, NCI panel, 48 h
[1] = test system: SNB-78
[2] = test system: OVCAR-3
[3] = test system: SF-295
[4] = test system: UO-31
[5] = test system: SNB-19
[6] = test system: EKVX
[7] = test system: SF-539
[8] = test system: KM12
[9] = test system: MOLT-4
[10] = test system: OVCAR-8
[11] = test system: UACC-257
[12] = test system: RPMI-8226
[13] = test system: NCI-H460
[14] = test system: K562
[15] = test system: HCC 2998
[16] = test system: HOP-62
[17] = test system: SR
[18] = test system: NCI/ADR-RES
[19] = test system: HT-29
[20] = test system: MDA-MB-435

Compound: N=C(N)n1ncc(Cl)c(Cl)c1=O
- GI50 [1]: 1.98 µM (inactive)
- GI50 [2]: 1.91 µM (inactive)
- GI50 [3]: 10.8 µM (inactive)
- GI50 [4]: 2.38 µM (inactive)
- GI50 [5]: 4.16 µM (inactive)
- GI50 [6]: 2.36 µM (inactive)
- GI50 [7]: 2.34 µM (inactive)
- GI50 [8]: 6.5 µM (inactive)
- GI50 [9]: 2.02 µM (inactive)
- GI50 [10]: 2.15 µM (inactive)
- GI50 [11]: 2.13 µM (inactive)
- GI50 [12]: 2.28 µM (inactive)
- GI50 [13]: 5.97 µM (inactive)
- GI50 [14]: 2.32 µM (inactive)

Compound: N#Cc1ccc(OCCSCCCCCCCCCCSCCOc2ccc(C#N)cc2)cc1
- GI50 [1]: > 100 µM (inactive)
- GI50 [2]: > 100 µM (inactive)
- GI50 [3]: 22.6 µM (inactive)
- GI50 [4]: 0.402 µM (active)
- GI50 [6]: > 100 µM (inactive)
- GI50 [7]: > 100 µM (inactive)
- GI50 [8]: > 100 µM (inactive)
- GI50 [9]: > 100 µM (inactive)
- GI50 [15]: > 100 µM (inactive)
- GI50 [10]: > 100 µM (inactive)
- GI50 [11]: 2.25 µM (inactive)
- GI50 [16]: > 100 µM (inactive)
- GI50 [12]: > 100 µM (inactive)
- GI50 [13]: > 100 µM (inactive)
- GI50 [14]: > 100 µM (inactive)

Compound: C=C1C(=O)O[C@H]2[C@H]3O[C@@H](C[C@@H]12)[C@@]1(C)CC[C@H](O1)C(C)=CCC[C@H]3C
- GI50 [17]: 0.065 µM (active)
- GI50 [2]: 1.37 µM (inactive)
- GI50 [3]: 5.16 µM (inactive)
- GI50 [18]: 1.72 µM (inactive)
- GI50 [4]: 1.46 µM (inactive)
- GI50 [5]: 6.35 µM (inactive)
- GI50 [6]: 1.52 µM (inactive)
- GI50 [7]: 1.55 µM (inactive)
- GI50 [8]: 1.8 µM (inactive)
- GI50 [19]: 1.34 µM (inactive)
- GI50 [9]: 1.26 µM (inactive)
- GI50 [15]: 1.75 µM (inactive)
- GI50 [10]: 1.44 µM (inactive)
- GI50 [11]: 1.76 µM (inactive)
- GI50 [16]: 6.27 µM (inactive)
- GI50 [12]: 0.513 µM (active)
- GI50 [13]: 2.07 µM (inactive)
- GI50 [14]: 1.08 µM (active)
- GI50 [20]: 1.46 µM (inactive)

Compound: CC(C)(C(=O)NN)c1ccccc1
- GI50 [17]: > 100 µM (inactive)
- GI50 [2]: > 100 µM (inactive)
- GI50 [3]: 33.7 µM (inactive)
- GI50 [18]: > 100 µM (inactive)
- GI50 [4]: 76.6 µM (inactive)
- GI50 [5]: > 100 µM (inactive)
- GI50 [6]: 34.6 µM (inactive)
- GI50 [7]: 42.2 µM (inactive)
- GI50 [8]: 42.3 µM (inactive)
- GI50 [19]: > 100 µM (inactive)
- GI50 [9]: > 100 µM (inactive)
- GI50 [15]: > 100 µM (inactive)
- GI50 [10]: > 100 µM (inactive)
- GI50 [11]: > 100 µM (inactive)
- GI50 [16]: > 100 µM (inactive)
- GI50 [12]: 84.1 µM (inactive)
- GI50 [13]: 37.2 µM (inactive)
- GI50 [14]: > 100 µM (inactive)
- GI50 [20]: 86.5 µM (inactive)

Compound: COc1ccc(Nc2nc3ccccc3nc2-c2cccs2)cc1OC
- GI50 [17]: 5.89 µM (inactive)
- GI50 [2]: > 10 µM (inactive)
- GI50 [3]: > 10 µM (inactive)
- GI50 [18]: > 10 µM (inactive)
- GI50 [4]: > 10 µM (inactive)
- GI50 [5]: > 10 µM (inactive)
- GI50 [6]: > 10 µM (inactive)
- GI50 [7]: > 10 µM (inactive)
- GI50 [8]: > 10 µM (inactive)
- GI50 [19]: > 10 µM (inactive)
- GI50 [9]: > 10 µM (inactive)
- GI50 [15]: > 10 µM (inactive)
- GI50 [10]: > 10 µM (inactive)
- GI50 [11]: > 10 µM (inactive)
- GI50 [16]: > 10 µM (inactive)
- GI50 [12]: > 10 µM (inactive)
- GI50 [13]: > 10 µM (inactive)
- GI50 [14]: > 10 µM (inactive)
- GI50 [20]: > 10 µM (inactive)

Compound: COC(=O)/C(=N\NC(N)=O)C(C(=O)C(=O)Nc1ccccc1OC)c1nc2ccc([N+](=O)[O-])cc2nc1O (stereo not given)
- GI50 [17]: > 100 µM (inactive)
- GI50 [2]: > 100 µM (inactive)
- GI50 [3]: > 100 µM (inactive)
- GI50 [18]: > 100 µM (inactive)
- GI50 [4]: > 100 µM (inactive)
- GI50 [5]: > 100 µM (inactive)
- GI50 [6]: > 100 µM (inactive)
- GI50 [7]: > 100 µM (inactive)
- GI50 [8]: 58.1 µM (inactive)
- GI50 [19]: > 100 µM (inactive)
- GI50 [9]: > 10 µM (inactive)
- GI50 [15]: > 100 µM (inactive)
- GI50 [10]: > 100 µM (inactive)
- GI50 [11]: > 100 µM (inactive)
- GI50 [16]: > 100 µM (inactive)
- GI50 [12]: > 100 µM (inactive)
- GI50 [13]: > 100 µM (inactive)
- GI50 [14]: 30 µM (inactive)
- GI50 [20]: 44.3 µM (inactive)
